Test results from US9206405B2, “Glycosyl hydrolase with beta-xylosidase and beta-glucosidase activities and uses thereof” (Institute of Materia Medica, Chinese Academy of Medical …, priority 2010, dated 2015).

Experiments:
LXYL-P1 (or P1) protein = assay: Specificity test on different glycoside (chromogenic) substrates hydrolysis by purified LXYL-P1; assay type: biochemical, Lentinula edodes M95.33; conditions: 20 min; for Relative activity (% control): control = PNP-Xyl; for Relative activity (% control) / OD405 value: 5 mM substrate, pH 5.0, 50° C., purified P1; for OD405 value: release of p-nitrophenol at 405 nm; for hydrolysis of chromogenic substrate by P1 protein (in words): 50° C., pH 5.0
Method: In addition to the β-xylosidase activity, especially the activity of hydrolyzing 7-xylosyltaxanes, the specificity of the LXYL-P1 (or P1) on other glycoside substrates was also tested by employing four chromogenic substrates: p-nitrophenyl-β-D-glucopyranoside (PNP-Glc), p-nitrophenyl-β-D-galactopyranoside (PNP-Gal), p-nitrophenyl-α-L-arabinopyrano side (PNP-Ara), and p-Nitrophenyl-β-D-xylopyranoside (PNP-Xyl, serving as a control). Each of the chromogenic substrates was prepared in 50 mM acetate buffer to obtain 5 mM solution (pH 5.0).
To the purified P1 protein diluent (25 μl) obtained in example 1, 100 μl of each chromogenic substrate was added. The reaction was performed at 50° C. for 20 min and stopped with 2 ml saturated solution of sodium borate. Release of p-nitrophenol (absorbance value) was measured at 405 nm.

[1] = test system: recombinant strain GS115-9K-P1-2; assay: β-xylosidase activity of the recombinant yeast strain on PNP-Xyl; assay type: cell-based, Pichia pastoris
Method: FIG. 4: Comparison of the recombinant strains GS115-9K-P1-2 and GS115-9K (control) on β-xylosidase activity.
BMGY medium (contains per liter: 10.00 g yeast extract, 20.00 g peptone, 100 mM potassium phosphate buffer, pH 6.0, 10 ml glycerol) and BMMY medium (10 ml glycerol in BMGY medium was replaced with 10 ml methanol as the carbon source) were used as the seed culture and fermentation media respectively for the recombinant yeast. The resistant strain obtained by screening was inoculated into 10 ml seed culture medium and incubated at 30° C., 220 rpm for 18 h. The cultures were washed 2 times by centrifugation and the cell pellet was transferred into 50 ml fermentation medium. Cells were cultured at 30° C., 220 rpm, and 1% methanol was added every 24 h for induction of expression of the recombinant protein. Meanwhile the enzyme activity of the recombinant strain was detected regularly. […]

[2] = test system: recombinant yeast GS115-3.5K-P1-2; assay: Hydrolysis of XDB by the recombinant yeast; assay type: cell-based, Pichia pastoris; conditions: 8 mg XDB/ml, 16 mg dry cells/ml, 24 h, 30-55° C., HPLC
Method: The strain was the same as that in Example 6 and the substrate was 7-xylosyl-10-deacetylbaccatin III (XDB). 1.5 ml cell reaction solution contained 16 mg dry cells per milliliter and 8 mg XDB per milliliter. The mixture was incubated in a water shaking bath for 24 h at 30˜55° C.

[3] = test system: recombinant yeast GS115-3.5K-P1-2; assay: Hydrolysis of 7-xylosyltaxane mixtures by the recombinant yeast; assay type: cell-based, Pichia pastoris; conditions: 7-xylosyltaxane mixtures about 8 mg/ml, 24 h, 30-55° C., HPLC
Source text: The recombinant yeast GS115-3.5K-P1-2 (transformant of the recombinant expression plasmid pPIC3.5K-P1-2) obtained in Example 4 was applied in the following bioconversion reaction, wherein the substrates to be converted were 7-xylosyltaxane mixtures, the main components of which included 62.12% of 7-xylosyl-10-deacetyltaxol, 12.75% of 7-xylosyl-10-deacetylcephalomannine, 17.04% of 7-xylosyl-10-deacetyltaxol C, and 8.09% of other components.
The method for culturing the recombinant strain was the same as in Example 5. 16 ml 7-xylosyltaxane mixtures (at a concentration of 100 mg/ml) were added to 200 ml recombinant strain reaction solution with the final concentration of the 7-xylosyltaxane mixtures being about 8 mg/ml (supersaturated). The recombinant yeast introduced with the null vector was taken as the negative control. The solution was mixed by magnetic stirring for 24 h at 30˜55° C. […] The yields of the three main products: 10-deacetyltaxol (DT): 3.27 mg/ml; 10-deacetylcephalomannine (DC): 0.74 mg/ml; and 10-deacetyltaxol C (DTC): 0.92 mg/ml.

LXYL-P1 (or P1) = assay: XDT conversion by Phenyl Sepharose peak LXYL-P1, thin layer chromatography; assay type: biochemical, Lentinula edodes M95.33; conditions: TLC, FIG. 1B
Source text: (§1) FIG. 1: Phenyl Sepharose hydrophobic column chromatography of the β-xylosidase-β-glucosidase from the protein extract of the fungus M95.33 (A), and thin layer chromatography (TLC) of XDT conversion (B). • A: P1. active elution peak of LXYL-P1; P2. active elution peak of LXYL-P2. […] XDT (control); 2. DT (control); 3. XDT bioconversion by LXYL-P1; 4. XDT bioconversion by LXYL-P2.
(§2) The fraction eluted in the above step was applied to a Phenyl Sepharose hydrophobic column (1.6 cm×20 cm) equilibrated with 50 mM Tris-HCl buffer (pH 8.0) containing 1 M […]. Elution was performed with Tris-HCl buffer (50 mM, pH8.0) having a linear gradient of 1.0˜0 M (NH4)2SO4 (at a flow rate of 2 ml/min). Fractions having enzymatic activity were collected and dialyzed with Tris-HCl buffer (50 mM, pH8.0).
(§3) Within penal B, 1 was XDT control; 2 was DT control; 3 was XDT conversion by P1; and 4 was XDT conversion by P2.

LXYL-P2 (or P2) = assay: XDT conversion by Phenyl Sepharose peak LXYL-P2, thin layer chromatography; assay type: biochemical, Lentinula edodes M95.33; conditions: TLC, FIG. 1B
Source text: as §1, §2, §3

[4] = test system: recombinant yeast GS115-9K-P1-2; assay: Hydrolysis of 7-xylosyl-10-deacetyltaxol (XDT) by the recombinant yeast; assay type: cell-based, Pichia pastoris; conditions: XDT 0.625 mg/ml, 12 h, 30-55° C.
Method: The recombinant yeast GS115-9K-P1-2 (transformant of the recombinant expression plasmid pPIC-9K-P1-2) obtained in example 4 was cultured and induced for 5 days in the manner of Example 4. Cells were centrifuged, harvested and washed, and then was, directly or after lyophilization, suspended with 50 mM acetate buffer or phosphate buffer (65 mg wet cells/ml or 16 mg dry cells/ml, pH 3.5˜7.5), and used as the hydrolytic reaction solution. To 20 ml of the cell reaction solution, 0.5 ml solution of 7-xylosyl-10-deacetyltaxol (XDT) was added with the final concentration of XDT being 0.625 mg/ml. The resultant was incubated in a water shaking bath for 12 h at 30˜55° C.
Extraction was performed with ethyl acetate after the reaction was completed.

[5] = test system: Moraxella sp. (ATCC55475); conditions: XDT 0.25 mg/ml, wet cells 91.5 mg/ml, 21 h, 28° C.; cited from earlier work
[6] = test system: Leifsonia shinshuensis DICP 16; conditions: 1 mg XDT in 2 ml cell suspension, 21 h, 30° C.; cited from earlier work

Question: For `O=[N+]([O-])c1ccc(O[C@@H]2OC[C@H](O)[C@H](O)[C@H]2O)cc1` [PNP-Ara, p-nitrophenyl-α-L-arabinopyranoside], which “Relative activity (% control)” value (LXYL-P1 (or P1) protein) is on record?
Answer: 0 % control

Question: What about the OD405 value (LXYL-P1 (or P1) protein) of the same compound?
Answer: 0.000

Question: With `O=[N+]([O-])c1ccc(O[C@@H]2O[C@H](CO)[C@H](O)[C@H](O)[C@H]2O)cc1` [PNP-Gal, p-nitrophenyl-β-D-galactopyranoside] as the compound, how does the “Relative activity (% control)” value (LXYL-P1 (or P1) protein) read?
Answer: 0 % control

Question: And the OD405 value (LXYL-P1 (or P1) protein)?
Answer: 0.000

Question: With `O=[N+]([O-])c1ccc(O[C@@H]2O[C@H](CO)[C@@H](O)[C@H](O)[C@H]2O)cc1` [PNP-Glc, p-nitrophenyl-β-D-glucopyranoside] as the compound, how does the “hydrolysis of chromogenic substrate by P1 protein (in words)” value (LXYL-P1 (or P1) protein) read?
Answer: could hydrolyze

Question: And the “Relative activity (% control)” value (LXYL-P1 (or P1) protein)?
Answer: 217 % control

Question: What about the OD405 value (LXYL-P1 (or P1) protein) of the same compound?
Answer: 1.615

Question: Which “hydrolysis of chromogenic substrate by P1 protein (in words)” value (LXYL-P1 (or P1) protein) does the source give for `O=[N+]([O-])c1ccc(O[C@@H]2OC[C@@H](O)[C@H](O)[C@H]2O)cc1` [PNP-Xyl, p-nitrophenyl-β-D-xylopyranoside] here?
Answer: could hydrolyze

Question: And the “Relative activity (% control)” value (LXYL-P1 (or P1) protein)?
Answer: 100 % control

Question: And the OD405 value (LXYL-P1 (or P1) protein)?
Answer: 0.745

Question: What about the “ability of recombinant strain to hydrolyze the substrate” value ([1]; cell suspension, 5 mM PNP-Xyl, 20 min, 30-55° C.) of the same compound?
Answer: has the ability to hydrolyze

Question: And the “enzymatic activity in supernatant of fermentation broth of recombinant strain” value ([1]; supernatant of the fermentation broth)?
Answer: no obvious enzymatic activity was detected

Question: With `CC(=O)O[C@@]12CO[C@@H]1C[C@H](O[C@@H]1OC[C@@H](O)[C@H](O)[C@H]1O)[C@@]1(C)C(=O)[C@H](O)C3=C(C)[C@@H](O)C[C@@](O)([C@@H](OC(=O)c4ccccc4)[C@H]21)C3(C)C` [XDB, 7-Xylosyl-10-deacetylbaccatin III] as the compound, how does the conversion ratio [2] read?
Answer: 86.54%

Question: For `CC=C(C)C(=O)NC(c1ccccc1)C(O)C(=O)OC1CC2(O)C(OC(=O)c3ccccc3)C3C4(OC(C)=O)COC4CC(OC4OCC(O)C(O)C4O)C3(C)C(=O)C(O)C(=C1C)C2(C)C` (stereo not shown) [XDC, 7-Xylosyl-10-deacetylcephalomannine], which conversion ratio [3] is on record?
Answer: 93.60%

Question: For `CC(=O)O[C@@]12CO[C@@H]1C[C@H](O[C@@H]1OC[C@@H](O)[C@H](O)[C@H]1O)[C@@]1(C)C(=O)[C@H](O)C3=C(C)[C@@H](OC(=O)[C@H](O)[C@@H](NC(=O)c4ccccc4)c4ccccc4)C[C@@](O)([C@@H](OC(=O)c4ccccc4)[C@H]21)C3(C)C` [XDT, 7-Xylosyl-10-deacetyltaxol], which “hydrolysis of XDT into DT by P1” value (LXYL-P1 (or P1)) is on record?
Answer: could hydrolyze

Question: And the “hydrolysis of XDT into DT by P2” value (LXYL-P2 (or P2))?
Answer: could hydrolyze

Question: What about the conversion ratio ([4]; HPLC) of the same compound?
Answer: 98.80%

Question: What about the “substrate transformation by TLC” value ([4]; TLC) of the same compound?
Answer: completely transformed

Question: What about the conversion ratio [3] of the same compound?
Answer: 92.45%

Question: What about the “XDT remaining after reaction (HPLC)” value [5] of the same compound?
Answer: No XDT was found to be remaining

Question: What about the “XDT remaining after reaction (HPLC)” value [6] of the same compound?
Answer: No XDT was found to be remaining

Question: With `CCCCCC(=O)N[C@@H](c1ccccc1)[C@@H](O)C(=O)O[C@H]1C[C@@]2(O)[C@@H](OC(=O)c3ccccc3)[C@@H]3[C@]4(OC(C)=O)CO[C@@H]4C[C@H](O[C@@H]4OC[C@@H](O)[C@H](O)[C@H]4O)[C@@]3(C)C(=O)[C@H](O)C(=C1C)C2(C)C` [XDTC, 7-Xylosyl-10-deacetyltaxol C] as the compound, how does the conversion ratio [3] read?
Answer: 92.00%
